For orientation: IC50 means the concentration that gives 50% inhibition.

Results on 24 compounds are retold here after patent US20230322706A1, “NOVEL BIARYL DERIVATIVE USEFUL AS DIACYLGLYCEROL ACYLTRANSFERASE 2 INHIBITOR, AND USE THEREOF” (LG CHEM, LTD., priority 2020, published 2023).

Each structure is given as a SMILES string.

For this assay, the target named is human DGAT2 (Homo sapiens (Human), UniProt Q96PD7). In words: Measurement of inhibitory effect against DGAT2 enzyme activity (SPA, Phospholipid FlashPlate, [14C]-TG production). The class given is biochemical. Conditions: recombinant human DGAT2 membrane protein from Sf-21 cells; inhibition of [14C]-TG production; 37° C. The text has this: Experimental Example: Measurement of Inhibitory Effect Against DGAT2 Enzyme Activity
Sequence of human DGAT2 (Q96PD7 whole entry): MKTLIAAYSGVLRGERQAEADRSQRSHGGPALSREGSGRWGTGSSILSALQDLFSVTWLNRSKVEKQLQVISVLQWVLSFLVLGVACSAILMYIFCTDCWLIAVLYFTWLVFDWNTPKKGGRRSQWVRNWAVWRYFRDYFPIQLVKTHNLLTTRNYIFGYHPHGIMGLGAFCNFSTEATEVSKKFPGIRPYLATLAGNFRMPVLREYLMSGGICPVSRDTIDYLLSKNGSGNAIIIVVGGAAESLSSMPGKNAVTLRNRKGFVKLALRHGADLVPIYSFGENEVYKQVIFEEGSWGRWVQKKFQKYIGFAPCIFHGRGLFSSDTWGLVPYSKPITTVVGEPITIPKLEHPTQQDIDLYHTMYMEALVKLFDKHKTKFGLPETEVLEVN
1. Preparation of DGAT2 Expression Vector
In order to prepare the pBacPAK9-DGAT2, which is DGAT2 expression vector, the human DGAT2 gene amplified by polymerase chain reaction (PCR) was cloned into the EcoR1 and Xho1 sites of the pBacPAK9 (clonctech) vector. The nucleotide sequence of the primers used in PCR was the forward primer 5′ […] and the reverse primer 5′ […]. The composition of the reaction solution was to contain 50 ng of cDNA clone (OriGene), 200 μM of dATP, dCTP, dTTP, dGTP, 200 nM of each primer, 1 unit of Tag DNA Polymerase (Toyobo), 1x PCR buffer, and the final volume was adjusted to 20 μl. The reaction conditions were denatured at 95° C. for 5 minutes, followed by 30 times of 94° C. for 20 seconds, 60° C. for 20 seconds, and 72° C. for 90 seconds, followed by further reaction at 72° C. for 7 minutes.
2. DGAT2 Expression and Preparation of Membrane Protein
Recombinant human DGAT2 protein was expressed in Sf-21 cells, which are insect cells, by using the BacPack baculovirus expression system (Clontech). The brief manufacturing process is as follows. First, the pBacPAK9-DGAT2 expression vector was transfected with BacPAK6 virus DNA (Bsu36I digest) into sf21 cells using Bacfectin to prepare a recombinant DGAT2 expressing baculovirus. The thus prepared baculovirus was infected with Sf-21 cells at 10 MOI (multiplicity of infection), and after 72 hours, infected insect cells were collected and membrane proteins were isolated. For membrane protein separation, the cell pellet was dissolved in a sucrose solution containing 250 mM sucrose, 10 mM Tris (pH 7.4), and 1 mM ethylenediamine-tetraacetic acid (EDTA), and then homogenized by using a dounce homogenizer, and the supernatant was taken by centrifuging at 600×g for 15 minutes, and centrifuged at 100,000×g for 1 hour to discard the supernatant, and the remaining pellet was resuspended in 20 mM HEPES buffer (pH 7.4). The prepared DGAT2 overexpressing membrane protein was dispensed in 100 μl and stored at −80° C. until use. Protein concentration was quantified by using the BCA Protein Assay Kit (Thermo Scientific).
3. Measurement of Inhibitory Effect Against DGAT2 Enzyme Activity
In vitro DGAT2 analysis was performed using a Phospholipid Flash Plate (PerkinElmer) based on the principle of SPA (Scintilation Proximity Assay). First, DGAT2 inhibition compounds serially diluted 5 times from 3 nM to 10 μM (final concentration, 1% DMSO) were mixed in a buffer solution containing 2 μg DGAT2-membrane protein and 20 mM HEPES, 20 mM MgCl2, 1 mg/mL BSA, 50 μM 1,2 sn-oleoyl glycerol (Sigma), put in a 96-well flash plate (FlashPlate) and reacted at 37° C. for 20 minutes, and then 1 μM [14C] ole oil CoA (PerkinElmer, NEC651050UC) was added to be a final volume of 100 μL and further reacted at 37° C. for 15 minutes. After the enzymatic reaction was completed, 100 μL of isopropanol was added, the plate was sealed with a film, and the plate was shaken slowly in a plate shaker. The next day, the amplified scintillation signal (cpm) in Topcounter (Packard) was measured to measure the degree of production of [14C]-labeled triacyl glycerol (TG) as a reaction product. The measured value when the compound was not treated was used as a positive control, and the measured value of the compound treated group was calculated as a relative % to measure the inhibition effect of the compound on TG production. The IC50 value, which is the concentration of the compound that inhibits TG production by 50%, was determined by treating the response value according to the compound concentration with a nonlinear regression curve using PRISM (Graphpad Inc.).
Consider `CCOc1ccccc1Oc1cncc(-c2cncc(NC(=O)CCc3ccccc3)n2)c1` [Example 1, N-(6-(5-(2-ethoxyphenoxy)pyridin-3-yl)pyrazin-2-yl)-3-phenylpropanamide], for which the IC50 came to 35 nM.
Take `CCOc1ccccc1Oc1cncc(-c2cncc(NC(=O)Cc3ccc(CC(=O)OC)cc3)n2)c1` [Example 2, methyl 2-(4-(2-((6-(5-(2-ethoxyphenoxy)pyridin-3-yl)pyrazin-2-yl)amino)-2-oxoethyl)phenyl)acetate]: the IC50 worked out at 27 nM.
The figure for `CCOc1ccccc1Oc1cncc(-c2cncc(NC(=O)Cc3ccc(CC(=O)O)cc3)n2)c1` [Example 3, 2-(4-(2-((6-(5-(2-ethoxyphenoxy)pyridin-3-yl)pyrazin-2-yl)amino)-2-oxoethyl)phenyl)acetic acid] is 3400 nM.
The figure for `CCOc1ccccc1Oc1cncc(-c2cncc(NC(=O)CCc3ccc(CC(=O)O)cc3)n2)c1` [Example 4, 2-(4-(3-((6-(5-(2-ethoxyphenoxy)pyridin-3-yl)pyrazin-2-yl)amino)-3-oxopropyl)phenyl)acetic acid] is 290 nM; for `CCOc1ccccc1Oc1cncc(-c2cncc(NC(=O)CCc3ccc(C(C)(C)C(=O)OC)cc3)n2)c1` [Example 5, methyl 2-(4-(3-((6-(5-(2-ethoxyphenoxy)pyridin-3-yl)pyrazin-2-yl)amino)-3-oxopropyl)phenyl)-2-methylpropanoate] it is 11 nM.
Then `CCOc1ccccc1Oc1cncc(-c2cncc(NC(=O)Cc3ccc(CC(C)(C)C(=O)O)cc3)n2)c1` [Example 7, 3-(4-(2-((6-(5-(2-ethoxyphenoxy)pyridin-3-yl)pyrazin-2-yl)amino)-2-oxoethyl)phenyl)-2,2-dimethylpropanoic acid], with 36 nM; and `CCOc1ccccc1Oc1cncc(-c2cncc(Nc3nccc(N4CCC[C@@H](C(=O)O)C4)n3)n2)c1` [Example 8, (R)-1-(2-((6-(5-(2-ethoxyphenoxy)pyridin-3-yl)pyrazin-2-yl)amino)pyrimidin-4-yl)piperidine-3-carboxylic acid], with 1800 nM; and `CCOc1ccccc1Oc1cncc(-c2cncc(Nc3cccc(-c4cccc(CC(C)(C)C(=O)O)c4)n3)n2)c1` [Example 9, 3-(3-(6-((6-(5-(2-ethoxyphenoxy)pyridin-3-yl)pyrazin-2-yl)amino)pyridin-2-yl)phenyl)-2,2-dimethylpropanoic acid], with 160 nM.
Regarding `CCOc1ccccc1Oc1cccc(-c2cncc(NC(=O)CCc3ccc(OC(C)(C)C(=O)O)cc3)n2)c1` [Example 13, 2-(4-(3-((6-(3-(2-ethoxyphenoxy)phenyl)pyrazin-2-yl)amino)-3-oxopropyl)phenoxy)-2-methylpropanoic acid], the IC50 turned out to be 330 nM.
For the compound `CCOc1ccccc1Oc1cccc(-c2cncc(NC(=O)Cc3ccc(CC(C)(C)C(=O)O)cc3)n2)c1` [Example 15, 3-(4-(2-((6-(3-(2-ethoxyphenoxy)phenyl)pyrazin-2-yl)amino)-2-oxoethyl)phenyl)-2,2-dimethylpropanoic acid], the IC50 was found to be 13 nM.
The figure for `CCOc1ccccc1Oc1cccc(-c2cncc(NC(=O)C(C)(C)c3ccc(CC(C)(C)C(=O)O)cc3)n2)c1` [Example 18, 3-(4-(1-((6-(3-(2-ethoxyphenoxy)phenyl)pyrazin-2-yl)amino)-2-methyl-1-oxopropan-2-yl)phenyl)-2,2-dimethylpropanoic acid] is 22 nM; for `CCOc1ccccc1Oc1cccc(-c2cncc(NC(=O)Cc3ccc(OC(C)(C)C(=O)O)cc3)n2)c1` [Example 19] it is 430 nM.
The figure for `CCOc1ccccc1Oc1cccc(-c2cncc(Nc3nccc(-c4ccc(CC(=O)O)cc4)n3)n2)c1` [Example 20, 2-(4-(2-((6-(3-(2-ethoxyphenoxy)phenyl)pyrazin-2-yl)amino)pyrimidin-4-yl)phenyl)acetic acid] is 3900 nM; for `CCOc1ccccc1Oc1cccc(-c2cncc(Nc3nccc(O[C@H]4CC[C@H](C(=O)O)CC4)n3)n2)c1` [Example 21, (1r,4r)-4-((2-((6-(3-(2-ethoxyphenoxy)phenyl)pyrazin-2-yl)amino)pyrimidin-4-yl)oxy)cyclohexane-1-carboxylic acid] it is 1200 nM; for `CCOc1ccccc1Oc1cccc(-c2cncc(NC(=O)CCc3ccccc3)n2)n1` [Example 22, N-(6-(6-(2-ethoxyphenoxy)pyridin-2-yl)pyrazin-2-yl)-3-phenylpropanamide] it is 2100 nM.
With `CCOc1ccccc1Oc1cccc(-c2cncc(NC(=O)Cc3ccc(CC(C)(C)C(=O)O)cc3)n2)n1` [Example 23, 3-(4-(2-((6-(6-(2-ethoxyphenoxy)pyridin-2-yl)pyrazin-2-yl)amino)-2-oxoethyl)phenyl)-2,2-dimethylpropanoic acid], the 50% inhibitory concentration (IC50) amounted to 61 nM.
The figure for `CCOc1ccccc1Oc1cccc(-c2cncc(Nc3nccc(N4CCC[C@@H](C(=O)O)C4)n3)n2)n1` [Example 24, (R)-1-(2-((6-(6-(2-ethoxyphenoxy)pyridin-2-yl)pyrazin-2-yl)amino)pyrimidin-4-yl)piperidine-3-carboxylic acid] is 7400 nM.
Then `CCOc1ccccc1Oc1cccc(-c2cncc(Nc3cccc(-c4cccc(CC(C)(C)C(=O)O)c4)n3)n2)n1` [Example 25, 3-(3-(6-((6-(6-(2-ethoxyphenoxy)pyridin-2-yl)pyrazin-2-yl)amino)pyridin-2-yl)phenyl)-2,2-dimethylpropanoic acid], with 450 nM; and `CCOc1cccnc1Oc1cccc(-c2cncc(NC(=O)CCc3ccc(C(C)(C)C(=O)O)cc3)n2)c1` [Example 26, 2-(4-(3-((6-(3-((3-ethoxypyridin-2-yl)oxy)phenyl)pyrazin-2-yl)amino)-3-oxopropyl)phenyl)-2-methylpropanoic acid], with 21 nM.
Then `CCOc1cccnc1Oc1cccc(-c2cncc(NC(=O)Cc3ccc(CC(C)(C)C(=O)O)cc3)n2)c1` [Example 27, 3-(4-(2-((6-(3-((3-ethoxypyridin-2-yl)oxy)phenyl)pyrazin-2-yl)amino)-2-oxoethyl)phenyl)-2,2-dimethylpropanoic acid], with 7.4 nM; and `CCOc1cccnc1Oc1cccc(-c2cncc(NC(=O)CCc3ccc(OC(C)(C)C(=O)O)cc3)n2)c1` [Example 28, 2-(4-(3-((6-(3-((3-ethoxypyridin-2-yl)oxy)phenyl)pyrazin-2-yl)amino)-3-oxopropyl)phenoxy)-2-methylpropanoic acid], with 210 nM; and `CCOc1cccnc1Oc1cccc(-c2cncc(NC(=O)C(C)(C)c3ccc(CC(C)(C)C(=O)O)cc3)n2)c1` [Example 29, 3-(4-(1-((6-(3-((3-ethoxypyridin-2-yl)oxy)phenyl)pyrazin-2-yl)amino)-2-methyl-1-oxopropane-2-yl)phenyl)-2,2-dimethylpropanoic acid], with 6.7 nM.
As for `CCOc1cccnc1Oc1cccc(-c2cncc(Nc3nccc(N4CCC[C@@H](C(=O)O)C4)n3)n2)c1` [Example 31, (R)-1-(2-((6-(3-((3-ethoxypyridin-2-yl)oxy)pheny)pyrazin-2-yl)amino)pyrimidin-4-yl)piperidine-3-carboxylic acid], the IC50 came out at 9200 nM.
The figure for `CCOc1cccnc1Oc1cccc(-c2cncc(Nc3cccc(-c4cccc(CC(C)(C)C(=O)O)c4)n3)n2)c1` [Example 32, 3-(3-(6-((6-(3-((3-ethoxypyridin-2-yl)oxy)phenyl)pyrazin-2-yl)amino)pyridin-2-yl)phenyl)-2,2-dimethylpropanoic acid] is 70 nM.
